According to patent US20230085307A1, “PYRIDAZINONE COMPOUND AND HERBICIDE” (NISSAN CHEMICAL CORPORATION, priority 2019, published 2023):

Experiments:
[1] = system: Italian ryegrass; test: Test Example 5: herbicidal effect by foliage application, plastic box (Table 20, symbol K); format: in vivo, Italian ryegrass (Lolium multiflorum); settings: for K: Italian ryegrass, herbicidal effect / herbicidal effect on K: Italian ryegrass (criteria 0-5): foliage application; for K: Italian ryegrass, herbicidal effect: three weeks after application; for herbicidal effect on K: Italian ryegrass (criteria 0-5): 320 g/ha
Outline: (§1)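 Post-emergence foliar test in sterilized diluvial soil. Compound applied as water-diluted emulsion at a predetermined rate to 14-day-old plants; evaluation at three weeks.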

[2] = system: green foxtail; test: Test Example 5: herbicidal effect by foliage application, plastic box (Table 20, symbol G); format: in vivo, green foxtail (Setaria viridis); settings: for G: green foxtail, herbicidal effect / herbicidal effect on G: green foxtail (criteria 0-5): foliage application; for G: green foxtail, herbicidal effect: three weeks after application; for herbicidal effect on G: green foxtail (criteria 0-5): 320 g/ha
Outline: as §1

[3] = system: wild oat; test: Test Example 5: herbicidal effect by foliage application, plastic box (Table 20, symbol I); format: in vivo, wild oat (Avena fatua); settings: for I: wild oat, herbicidal effect / herbicidal effect on I: wild oat (criteria 0-5): foliage application; for I: wild oat, herbicidal effect: three weeks after application; for herbicidal effect on I: wild oat (criteria 0-5): 320 g/ha
Outline: as §1

[4] = system: barnyard grass; test: Test Example 5: herbicidal effect by foliage application, plastic box (Table 20, symbol H); format: in vivo, barnyard grass (Echinochloa crus-galli); settings: for H: barnyard grass, herbicidal effect / herbicidal effect on H: barnyard grass (criteria 0-5): foliage application; for H: barnyard grass, herbicidal effect: three weeks after application; for herbicidal effect on H: barnyard grass (criteria 0-5): 320 g/ha
Outline: as §1

[5] = system: blackgrass; test: Test Example 5: herbicidal effect by foliage application, plastic box (Table 20, symbol J); format: in vivo, blackgrass (Alopecurus myosuroides); settings: for J: blackgrass, herbicidal effect / herbicidal effect on J: blackgrass (criteria 0-5): foliage application; for J: blackgrass, herbicidal effect: three weeks after application; for herbicidal effect on J: blackgrass (criteria 0-5): 320 g/ha
Outline: as §1

[6] = system: windgrass; test: Test Example 5: herbicidal effect by foliage application, plastic box (Table 20, symbol L); format: in vivo, windgrass (Apera spica-venti); settings: for L: windgrass, herbicidal effect / herbicidal effect on L: windgrass (criteria 0-5): foliage application; for L: windgrass, herbicidal effect: three weeks after application; for herbicidal effect on L: windgrass (criteria 0-5): 320 g/ha
Outline: as §1

[7] = system: persian speedwell; test: Test Example 5: herbicidal effect by foliage application, plastic box (Table 20, symbol R); format: in vivo, Persian speedwell (Veronica persica); settings: foliage application; for R: persian speedwell, herbicidal effect: three weeks after application; for herbicidal effect on R: persian speedwell (criteria 0-5): 320 g/ha, evaluated three weeks after application
Outline: as §1

[8] = system: redroot pigweed; test: Test Example 5: herbicidal effect by foliage application, plastic box (Table 20, symbol N); format: in vivo, redroot pigweed (Amaranthus retroflexus); settings: for N: redroot pigweed, herbicidal effect / herbicidal effect on N: redroot pigweed (criteria 0-5): foliage application; for N: redroot pigweed, herbicidal effect: three weeks after application; for herbicidal effect on N: redroot pigweed (criteria 0-5): 320 g/ha
Outline: as §1

[9] = system: southern crabgrass; test: Test Example 5: herbicidal effect by foliage application, plastic box (Table 20, symbol F); format: in vivo, southern crabgrass (Digitaria ciliaris); settings: for F: southern crabgrass, herbicidal effect / herbicidal effect on F: southern crabgrass (criteria 0-5): foliage application; for F: southern crabgrass, herbicidal effect: three weeks after application; for herbicidal effect on F: southern crabgrass (criteria 0-5): 320 g/ha
Outline: as §1

[10] = system: chickweed; test: Test Example 5: herbicidal effect by foliage application, plastic box (Table 20, symbol P); format: in vivo, common chickweed (Stellaria media); settings: for P: chickweed, herbicidal effect / herbicidal effect on P: chickweed (criteria 0-5): foliage application; for P: chickweed, herbicidal effect: three weeks after application; for herbicidal effect on P: chickweed (criteria 0-5): 320 g/ha
Description: [Test Example 5] Herbicidal Effect Test by Foliage Application
Sterilized diluvial soil was placed in a plastic box having a length of 21 cm, a width of 13 cm, and a depth of 7 cm. The seeds of each of southern crabgrass, green foxtail, barnyard grass, wild oat, blackgrass, Italian ryegrass, windgrass, velvetleaf, redroot pigweed, lambsquarters, chickweed, false cleavers, persian speedwell, corn, soybean, rice, wheat, beet, and rapeseed were sowed in a spot-like manner and covered with the soil having a thickness of about 1.5 cm. Thereafter, the plants were grown in a greenhouse at 25° C. to 30° C. After 14-day growth of the plants, the emulsion agent of the compound of the present invention prepared according to Formulation Example 2 was diluted with water so as to achieve a predetermined herbicide amount, and the diluted emulsion agent was uniformly applied to a foliage part with a small-sized spray. Three weeks after the herbicide application, the effect of the herbicide on each plant was evaluated according to the criteria of Test Example 1.

[11] = system: velvetleaf; test: Test Example 5: herbicidal effect by foliage application, plastic box (Table 20, symbol M); format: in vivo, velvetleaf (Abutilon theophrasti); settings: for M: velvetleaf, herbicidal effect / herbicidal effect on M: velvetleaf (criteria 0-5): foliage application; for M: velvetleaf, herbicidal effect: three weeks after application; for herbicidal effect on M: velvetleaf (criteria 0-5): 320 g/ha
Outline: as §1

[12] = system: lambsquarters; test: Test Example 5: herbicidal effect by foliage application, plastic box (Table 20, symbol O); format: in vivo, lambsquarters (Chenopodium album); settings: for O: lambsquarters, herbicidal effect / herbicidal effect on O: lambsquarters (criteria 0-5): foliage application; for O: lambsquarters, herbicidal effect: three weeks after application; for herbicidal effect on O: lambsquarters (criteria 0-5): 320 g/ha
Outline: as §1

[13] = system: barnyard grass; test: Test Example 3: herbicidal effect by foliage application, Wagner pot (Table 18, symbol H); format: in vivo, barnyard grass (Echinochloa crus-galli); settings: 320 g/ha
Outline: (§2)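 Plants were sown in alluvial soil held under 0.1–0.5 cm standing water and grown 14 days in a greenhouse at 25–30 °C. An emulsifiable formulation, water-diluted to the set dose, was then sprayed onto the foliage, and effects were scored three weeks later using previously defined criteria.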

[14] = system: Chinese sprangletop; test: Test Example 3: herbicidal effect by foliage application, Wagner pot (Table 18, symbol D); format: in vivo, chinese sprangletop (Leptochloa chinensis); settings: 320 g/ha
Outline: as §2

[15] = system: rice flat sedge; test: Test Example 3: herbicidal effect by foliage application, Wagner pot (Table 18, symbol E); format: in vivo, rice flat sedge (Cyperus iria); settings: 320 g/ha
Outline: as §2

[16] = evaluated three weeks after application
[17] = amount of applied herbicide 320 g/ha, foliage application after 14-day growth, evaluated three weeks after application

Cc1nn(C)c(=O)c(-c2c(-c3ccc(OCC(=O)NCC(F)(F)F)cc3)sc3ccccc23)c1O [1-145]
K: Italian ryegrass, herbicidal effect ([1]; AAH 320 g/ha): 0 (Herbicidal rate of 5% or less (almost no effect)) | G: green foxtail, herbicidal effect ([2]; AAH 320 g/ha): 0 (Herbicidal rate of 5% or less (almost no effect)) | I: wild oat, herbicidal effect ([3]; AAH 320 g/ha): 0 (Herbicidal rate of 5% or less (almost no effect)) | H: barnyard grass, herbicidal effect ([4]; AAH 320 g/ha): 0 (Herbicidal rate of 5% or less (almost no effect)) | J: blackgrass, herbicidal effect ([5]; AAH 320 g/ha): 0 (Herbicidal rate of 5% or less (almost no effect)) | L: windgrass, herbicidal effect ([6]; AAH 320 g/ha): 0 (Herbicidal rate of 5% or less (almost no effect)) | R: persian speedwell, herbicidal effect ([7]; AAH 320 g/ha): 0 (Herbicidal rate of 5% or less (almost no effect)) | N: redroot pigweed, herbicidal effect ([8]; AAH 320 g/ha): 0 (Herbicidal rate of 5% or less (almost no effect)) | F: southern crabgrass, herbicidal effect ([9]; AAH 320 g/ha): 0 (Herbicidal rate of 5% or less (almost no effect)) | P: chickweed, herbicidal effect ([10]; AAH 320 g/ha): 3 (Herbicidal rate of 40% or more and less than 70%) | M: velvetleaf, herbicidal effect ([11]; AAH 320 g/ha): 0 (Herbicidal rate of 5% or less (almost no effect)) | O: lambsquarters, herbicidal effect ([12]; AAH 320 g/ha): 0 (Herbicidal rate of 5% or less (almost no effect))

COc1cc(OC)cc(-c2sc3ccccc3c2-c2c(O)c(OC)nn(C)c2=O)c1 [1-184]
K: Italian ryegrass, herbicidal effect ([1]; AAH 80 g/ha): 0 (Herbicidal rate of 5% or less (almost no effect)) | G: green foxtail, herbicidal effect ([2]; AAH 80 g/ha): 0 (Herbicidal rate of 5% or less (almost no effect)) | I: wild oat, herbicidal effect ([3]; AAH 80 g/ha): 0 (Herbicidal rate of 5% or less (almost no effect)) | H: barnyard grass, herbicidal effect ([4]; AAH 80 g/ha): 0 (Herbicidal rate of 5% or less (almost no effect)) | J: blackgrass, herbicidal effect ([5]; AAH 80 g/ha): 0 (Herbicidal rate of 5% or less (almost no effect)) | L: windgrass, herbicidal effect ([6]; AAH 80 g/ha): 0 (Herbicidal rate of 5% or less (almost no effect)) | R: persian speedwell, herbicidal effect ([7]; AAH 80 g/ha): 0 (Herbicidal rate of 5% or less (almost no effect)) | N: redroot pigweed, herbicidal effect ([8]; AAH 80 g/ha): 0 (Herbicidal rate of 5% or less (almost no effect)) | F: southern crabgrass, herbicidal effect ([9]; AAH 80 g/ha): 0 (Herbicidal rate of 5% or less (almost no effect)) | P: chickweed, herbicidal effect ([10]; AAH 80 g/ha): 4 (Herbicidal rate of 70% or more and less than 90%) | M: velvetleaf, herbicidal effect ([11]; AAH 80 g/ha): 0 (Herbicidal rate of 5% or less (almost no effect)) | O: lambsquarters, herbicidal effect ([12]; AAH 80 g/ha): 0 (Herbicidal rate of 5% or less (almost no effect))

CCCC(=O)Oc1c(C)nn(C)c(=O)c1-c1c(-c2ccccc2SC)sc2ccc(C)cc12 [2-143]
herbicidal effect on K: Italian ryegrass (criteria 0-5) [1, 16]: 0 (Herbicidal rate of 5% or less (almost no effect)) | herbicidal effect on G: green foxtail (criteria 0-5) [2, 16]: 0 (Herbicidal rate of 5% or less (almost no effect)) | herbicidal effect on I: wild oat (criteria 0-5) [3, 16]: 0 (Herbicidal rate of 5% or less (almost no effect)) | herbicidal effect on H: barnyard grass (criteria 0-5) [4, 16]: 0 (Herbicidal rate of 5% or less (almost no effect)) | herbicidal effect on J: blackgrass (criteria 0-5) [5, 16]: 0 (Herbicidal rate of 5% or less (almost no effect)) | herbicidal effect on L: windgrass (criteria 0-5) [6, 16]: 0 (Herbicidal rate of 5% or less (almost no effect)) | herbicidal effect on R: persian speedwell (criteria 0-5) [7]: 0 (Herbicidal rate of 5% or less (almost no effect)) | herbicidal effect on N: redroot pigweed (criteria 0-5) [8, 16]: 0 (Herbicidal rate of 5% or less (almost no effect)) | herbicidal effect on F: southern crabgrass (criteria 0-5) [9, 16]: 0 (Herbicidal rate of 5% or less (almost no effect)) | herbicidal effect on P: chickweed (criteria 0-5) [10, 16]: 3 (Herbicidal rate of 40% or more and less than 70%) | herbicidal effect on M: velvetleaf (criteria 0-5) [11, 16]: 0 (Herbicidal rate of 5% or less (almost no effect)) | herbicidal effect on O: lambsquarters (criteria 0-5) [12, 16]: 0 (Herbicidal rate of 5% or less (almost no effect))

CCCC(=O)Oc1c(C)nn(C)c(=O)c1-c1c(-c2ccc(F)cc2OC)sc2ccc(-c3ccc(OC(C)C)cc3)cc12 [2-169]
herbicidal effect on K: Italian ryegrass (criteria 0-5) [1, 16]: 0 (Herbicidal rate of 5% or less (almost no effect)) | herbicidal effect on G: green foxtail (criteria 0-5) [2, 16]: 0 (Herbicidal rate of 5% or less (almost no effect)) | herbicidal effect on I: wild oat (criteria 0-5) [3, 16]: 0 (Herbicidal rate of 5% or less (almost no effect)) | herbicidal effect on H: barnyard grass (criteria 0-5) [4, 16]: 0 (Herbicidal rate of 5% or less (almost no effect)) | herbicidal effect on J: blackgrass (criteria 0-5) [5, 16]: 0 (Herbicidal rate of 5% or less (almost no effect)) | herbicidal effect on L: windgrass (criteria 0-5) [6, 16]: 0 (Herbicidal rate of 5% or less (almost no effect)) | herbicidal effect on R: persian speedwell (criteria 0-5) [7]: 0 (Herbicidal rate of 5% or less (almost no effect)) | herbicidal effect on N: redroot pigweed (criteria 0-5) [8, 16]: 2 (Herbicidal rate of 20% or more and less than 40%) | herbicidal effect on F: southern crabgrass (criteria 0-5) [9, 16]: 0 (Herbicidal rate of 5% or less (almost no effect)) | herbicidal effect on P: chickweed (criteria 0-5) [10, 16]: 0 (Herbicidal rate of 5% or less (almost no effect)) | herbicidal effect on M: velvetleaf (criteria 0-5) [11, 16]: 0 (Herbicidal rate of 5% or less (almost no effect)) | herbicidal effect on O: lambsquarters (criteria 0-5) [12, 16]: 3 (Herbicidal rate of 40% or more and less than 70%)

CCCC(=O)Oc1c(C)nn(C)c(=O)c1-c1c(-c2ccccc2OCOC)sc2c(Cl)cccc12 [4-084]
Herbicidal effect by foliage application, K: Italian ryegrass [1, 17]: 0 (Herbicidal rate of 5% or less (almost no effect)) | herbicidal effect on barnyard grass (H) [13]: 5 (Herbicidal rate of 90% or more (almost completely withered)) | Herbicidal effect by foliage application, G: green foxtail [2, 17]: 2 (Herbicidal rate of 20% or more and less than 40%) | herbicidal effect on Chinese sprangletop (D) [14]: 4 (Herbicidal rate of 70% or more and less than 90%) | Herbicidal effect by foliage application, I: wild oat [3, 17]: 0 (Herbicidal rate of 5% or less (almost no effect)) | Herbicidal effect by foliage application, H: barnyard grass [4, 17]: 3 (Herbicidal rate of 40% or more and less than 70%) | Herbicidal effect by foliage application, J: blackgrass [5, 17]: 0 (Herbicidal rate of 5% or less (almost no effect)) | Herbicidal effect by foliage application, L: windgrass [6, 17]: 0 (Herbicidal rate of 5% or less (almost no effect)) | Herbicidal effect by foliage application, N: redroot pigweed [8, 17]: 5 (Herbicidal rate of 90% or more (almost completely withered)) | Herbicidal effect by foliage application, F: southern crabgrass [9, 17]: 3 (Herbicidal rate of 40% or more and less than 70%) | Herbicidal effect by foliage application, P: chickweed [10, 17]: 4 (Herbicidal rate of 70% or more and less than 90%) | Herbicidal effect by foliage application, M: velvetleaf [11, 17]: 4 (Herbicidal rate of 70% or more and less than 90%) | Herbicidal effect by foliage application, O: lambsquarters [12, 17]: 0 (Herbicidal rate of 5% or less (almost no effect)) | herbicidal effect on rice flat sedge (E) [15]: 4 (Herbicidal rate of 70% or more and less than 90%)
